We go through 11 compounds from article PMC5228619 (Cell chemical biology, 2016).

≈ marks a conversion by molar mass, not a printed value.

As usually defined, the MIC is the lowest concentration that inhibits growth of the organism.

In one experiment the test system is UCH MRSA 127 (dfrG). Nature of the experiment: MIC against clinical isolate UCH MRSA 127. It is filed as cell-based, Staphylococcus aureus.
The test system of another experiment is HH MRSA 1184 (dfrK). Nature of the experiment: MIC against clinical isolate HH MRSA 1184. It is filed as cell-based, Staphylococcus aureus.
A further experiment concerns HH MRSA 714 (dfrG). Nature of the experiment: MIC against clinical isolate HH MRSA 714. Format: cell-based. Particulars: Staphylococcus aureus.
The test system of a further experiment is ATCC 43300 (Sa43300). As to the kind of experiment: MIC against ATCC 43300. Format: cell-based, Staphylococcus aureus.
Another experiment has as its system UCH MSSA 1 (dfrG). As to the kind of experiment: MIC against clinical isolate UCH MSSA 1. Format: cell-based, Staphylococcus aureus.
The subject of the next experiment is UCH MRSA 121 (dfrG). As to the kind of experiment: MIC against clinical isolate UCH MRSA 121. It is filed as cell-based, Staphylococcus aureus.
The next experiment deals with UCH MRSA 1 (dfrG). As to the kind of experiment: MIC against clinical isolate UCH MRSA 1. Format: cell-based, Staphylococcus aureus.
The next experiment relates to HH MRSA 1144 (dfrA). As to the kind of experiment: MIC against clinical isolate HH MRSA 1144. It is filed as cell-based, Staphylococcus aureus.
In the next experiment the test system is UCH MRSA 115 (dfrA). Nature of the experiment: MIC against clinical isolate UCH MRSA 115. It is filed as cell-based, Staphylococcus aureus.
Experiment [1] deals with S. aureus with dfrB point mutations. As to conditions: point mutations in chromosomal dfrB, ref Dale et al., 1997, cited from earlier work.
The test system of experiment [2] is multi-drug resistant MRSA ST398 (dfrK). Particulars: dfrK in swine MRSA ST398; ref Kadlec et al. 2010; cited from earlier work.
The subject of experiment [3] is TMP-resistant MRSA and MSSA clinical isolates. Nature of the experiment: Clinical antibiotic susceptibility. It is filed as cell-based, Staphylococcus aureus. Particulars: all strains; CLSI breakpoint standards.
The test system is the same in experiment [4]. Nature of the experiment: MIC against panel of TMP-resistant clinical isolates. It is filed as cell-based, Staphylococcus aureus.
The mark [5] stands for this setting: Staphylococcus aureus, ATCC43300.
Where [6] appears, read: UCH MRSA 127 (dfrG), SSTI isolate.
Where [7] appears, read: HH MRSA 1184 (dfrK), sputum isolate.
Setting [8] is: UCH MSSA 1 (dfrG), sinus cavity isolate.
[9] abbreviates: UCH MRSA 121 (dfrG), sputum isolate.
Where [10] appears, read: HH MRSA 1144 (dfrA), SSTI isolate.
[11] abbreviates: UCH MRSA 115 (dfrA), SSTI isolate.
Where [12] appears, read: ATCC 43300, no TMP resistance gene.

For the compound `CCc1nc(N)nc(N)c1C#C[C@H](C)c1cc2c(c(-c3ccc(C(=O)O)cc3)c1)OCO2` [UCP1206, (R)-4-(6-(4-(2,4-diamino-6-ethylpyrimidin-5-yl)but-3-yn-2-yl)benzo[d][1,3]dioxol-4-yl)benzoic acid], the MIC against UCH MRSA 127 (dfrG) (Staphylococcus aureus, MRSA) was determined as 1.25 µg/mL (≈ 2.9 µM); against HH MRSA 1184 (dfrK) (Staphylococcus aureus, MRSA), 1.25 µg/mL (≈ 2.9 µM); in the experiment with HH MRSA 714 (dfrG) it was 2.5 µg/mL (≈ 5.81 µM); in the experiment with ATCC 43300 (Sa43300) (setting [5]), 0.0098 µg/mL (≈ 0.0228 µM); against UCH MSSA 1 (dfrG) (Staphylococcus aureus, MSSA) it was 1.25 µg/mL (≈ 2.9 µM); in the experiment on UCH MRSA 121 (dfrG) (Staphylococcus aureus, MRSA), 2.5 µg/mL (≈ 5.81 µM). The MIC is 2.5 µg/mL (≈ 5.81 µM) against UCH MRSA 1 (dfrG) (Staphylococcus aureus, MRSA); over 10 µg/mL with HH MRSA 1144 (dfrA) (Staphylococcus aureus, MRSA); over 10 µg/mL in the experiment on UCH MRSA 115 (dfrA) (Staphylococcus aureus, MRSA).

For `COc1cc(Cc2cnc(N)nc2N)cc(OC)c1OC` [TMP, trimethoprim, reference compound], the minimal inhibitory concentration (MIC) with UCH MRSA 127 (dfrG) (Staphylococcus aureus, MRSA) was over 1000 µg/mL; in [1] (1990s), 256 µg/mL (≈ 882 µM); with HH MRSA 1184 (dfrK) (Staphylococcus aureus, MRSA) it was over 1000 µg/mL; in the experiment with HH MRSA 714 (dfrG) it was over 1000 µg/mL; in the experiment with ATCC 43300 (Sa43300) (setting [5]), 0.312 µg/mL (≈ 1.08 µM); in the experiment with UCH MSSA 1 (dfrG) (Staphylococcus aureus, MSSA), over 1000 µg/mL. Also, the MIC in [2] was 256 µg/mL (≈ 882 µM); with UCH MRSA 121 (dfrG) (Staphylococcus aureus, MRSA), over 1000 µg/mL; in the experiment on UCH MRSA 1 (dfrG) (Staphylococcus aureus, MRSA), over 1000 µg/mL; against UCH MRSA 115 (dfrA) (Staphylococcus aureus, MRSA), 250 µg/mL (≈ 861 µM). In addition, the “Increase in MIC” value in experiment [1] is recorded as ~ 800 fold.

In the case of `CN[C@H](CC(C)C)C(=O)N[C@H]1C(=O)N[C@@H](CC(N)=O)C(=O)N[C@H]2C(=O)N[C@H]3C(=O)N[C@H](C(=O)N[C@H](C(=O)O)c4cc(O)cc(O)c4-c4cc3ccc4O)[C@H](O)c3ccc(c(Cl)c3)Oc3cc2cc(c3O[C@@H]2O[C@H](CO)[C@@H](O)[C@H](O)[C@H]2O[C@H]2C[C@](C)(N)[C@H](O)[C@H](C)O2)Oc2ccc(cc2Cl)[C@H]1O` [vancomycin], the “Susceptibility based on breakpoint MICs” value in experiment [3] is listed as “susceptible”.

Turning to `CCc1nc(N)nc(N)c1C#CC(C)c1cc2c(c(-c3ccc(C(=O)O)cc3)c1)OCO2` (stereo not shown) [UCP1191], the MIC in the experiment on UCH MRSA 127 (dfrG) (setting [6]) was found to be 0.1563 µg/mL (≈ 0.363 µM); against HH MRSA 1184 (dfrK) (setting [7]), 0.1563 µg/mL (≈ 0.363 µM); against UCH MSSA 1 (dfrG) (setting [8]), 0.3125 µg/mL (≈ 0.726 µM); in the experiment with UCH MRSA 121 (dfrG) (setting [9]), 0.625 µg/mL (≈ 1.45 µM); against HH MRSA 1144 (dfrA) (setting [10]), 10 µg/mL (≈ 23.2 µM); against UCH MRSA 115 (dfrA) (setting [11]) it was 20 µg/mL (≈ 46.5 µM). In experiment [4] (dfrG- and dfrK-possessing strains), the “MIC against strains carrying dfrG and dfrK” value is 0.1563−0.625 μg/mL.

As for `CCc1nc(N)nc(N)c1C#C[C@@H](C)c1cc2c(c(-c3ccc(C(=O)O)cc3)c1)OCO2` [UCP1205, (S)-4-(6-(4-(2,4-diamino-6-ethylpyrimidin-5-yl)but-3-yn-2-yl)benzo[d][1,3]dioxol-4-yl)benzoic acid], the MIC against UCH MRSA 127 (dfrG) (Staphylococcus aureus, MRSA) stood at 0.312 µg/mL (≈ 0.726 µM); against HH MRSA 1184 (dfrK) (Staphylococcus aureus, MRSA), 0.312 µg/mL (≈ 0.726 µM); in the experiment on HH MRSA 714 (dfrG), 0.625 µg/mL (≈ 1.45 µM); with UCH MSSA 1 (dfrG) (Staphylococcus aureus, MSSA), 0.312 µg/mL (≈ 0.726 µM); with UCH MRSA 121 (dfrG) (Staphylococcus aureus, MRSA), 0.625 µg/mL (≈ 1.45 µM); with UCH MRSA 1 (dfrG) (Staphylococcus aureus, MRSA), 0.625 µg/mL (≈ 1.45 µM). Besides, the MIC in the experiment with HH MRSA 1144 (dfrA) (Staphylococcus aureus, MRSA) is over 10 µg/mL; against UCH MRSA 115 (dfrA) (Staphylococcus aureus, MRSA), over 10 µg/mL.

In the case of `Cc1cc(NS(=O)(=O)c2ccc(N)cc2)no1` [SMX, sulfamethoxazole, reference compound], the minimal inhibitory concentration (MIC) in the experiment with UCH MRSA 127 (dfrG) (Staphylococcus aureus, MRSA) was 16 µg/mL (≈ 63.2 µM); in the experiment on HH MRSA 714 (dfrG), over 500 µg/mL; in the experiment with UCH MSSA 1 (dfrG) (Staphylococcus aureus, MSSA) it was over 500 µg/mL; in the experiment with UCH MRSA 121 (dfrG) (Staphylococcus aureus, MRSA) it was over 500 µg/mL; in the experiment with UCH MRSA 1 (dfrG) (Staphylococcus aureus, MRSA) it was over 500 µg/mL; with HH MRSA 1144 (dfrA) (Staphylococcus aureus, MRSA) it was over 500 µg/mL. For the same compound, in the experiment on UCH MRSA 115 (dfrA) (Staphylococcus aureus, MRSA), the MIC came out at 500 µg/mL (≈ 1970 µM).

For `CO[C@H]1/C=C/O[C@@]2(C)Oc3c(C)c(O)c4c(O)c(c(/C=N/N5CCN(C)CC5)c(O)c4c3C2=O)NC(=O)/C(C)=C\C=C\[C@H](C)[C@H](O)[C@@H](C)[C@@H](O)[C@@H](C)[C@H](OC(C)=O)[C@@H]1C` [rifampin], the “Susceptibility based on breakpoint MICs” value in experiment [3] is given as “susceptible”.

On to `CCc1nc(N)nc(N)c1C#C[C@@H](C)c1cc(OC)cc(-c2ccc(C(=O)O)cc2)c1` [UCP1172], for which the MIC against UCH MRSA 127 (dfrG) (setting [6]) stood at 0.3125 µg/mL (≈ 0.75 µM); against HH MRSA 1184 (dfrK) (setting [7]) it was 0.3125 µg/mL (≈ 0.75 µM); against ATCC 43300 (Sa43300) (setting [12]) it was 0.0098 µg/mL (≈ 0.0235 µM); in the experiment with UCH MRSA 121 (dfrG) (setting [9]) it was 0.625 µg/mL (≈ 1.5 µM); against HH MRSA 1144 (dfrA) (setting [10]), 5 µg/mL (≈ 12 µM); with UCH MRSA 115 (dfrA) (setting [11]), 5 µg/mL (≈ 12 µM). For the same compound, the “MIC against strains possessing dfrA” value in experiment [4] (dfrA-possessing strains) is “does not significantly inhibit”.

As for `CC(=O)NC[C@H]1CN(c2ccc(N3CCOCC3)c(F)c2)C(=O)O1` [linezolid], the “Susceptibility based on breakpoint MICs” value in experiment [3] is “susceptible”.

`CCc1nc(N)nc(N)c1C#C[C@@H](C)c1cc(-c2ccc(C(=O)O)cc2)ccc1OC` [UCP1164]: the MIC with UCH MRSA 127 (dfrG) (setting [6]) was 2.5 µg/mL (≈ 6 µM); against HH MRSA 1184 (dfrK) (setting [7]), 0.625 µg/mL (≈ 1.5 µM); against ATCC 43300 (Sa43300) (setting [12]) it was 0.0391 µg/mL (≈ 0.0939 µM); with UCH MSSA 1 (dfrG) (setting [8]) it was 5 µg/mL (≈ 12 µM); against UCH MRSA 121 (dfrG) (setting [9]), 5 µg/mL (≈ 12 µM); against UCH MRSA 1 (dfrG) (UCH MRSA 1 (dfrG), blood isolate) it was 2.5 µg/mL (≈ 6 µM). In addition, the MIC is 5 µg/mL (≈ 12 µM) in the experiment with HH MRSA 1144 (dfrA) (setting [10]) and 10 µg/mL (≈ 24 µM) with UCH MRSA 115 (dfrA) (setting [11]).

On to `CCCCCCCCCC(=O)N[C@@H](Cc1c[nH]c2ccccc12)C(=O)N[C@H](CC(N)=O)C(=O)N[C@@H](CC(=O)O)C(=O)N[C@@H]1C(=O)NCC(=O)N[C@@H](CCCN)C(=O)N[C@@H](CC(=O)O)C(=O)N[C@H](C)C(=O)N[C@@H](CC(=O)O)C(=O)NCC(=O)N[C@H](CO)C(=O)N[C@@H]([C@H](C)CC(=O)O)C(=O)N[C@@H](CC(=O)c2ccccc2N)C(=O)O[C@@H]1C` [daptomycin], for which, in experiment [3], the “Susceptibility based on breakpoint MICs” value is recorded as “susceptible”.
